Source: patent US6884600B1, “Protein phosphatase-1 catalytic subunit interactions” (Medical Research Council London, priority 1996, dated 2005)
“Also recorded” adds a separate entry of the source.

Assays:
PP1GL [1] = assay: Phosphorylase phosphatase activity of PP1GL (hepatic glycogen particles); assay type: biochemical, rat
Protocol: Hepatic glycogen particles were diluted in assay buffer to 0.6 phosphorylase phosphatase (PhP) mU per ml, incubated for 15 minutes at 30° C. with GM-(G63-T93) (closed circles), GM-(G63-K80) (open circles) or GM-(G63-N75) (closed triangles) and assayed as described in Example 1. The open triangles show the effect of GM-(G63-N75) which had been phosphorylated at Ser67 by PKA (pGM-(G63-N75)). Similar results were obtained in four experiments.
(A) Hepatic glycogen protein particles containing PP1-GL were diluted and incubated for 15 min at 30° C. with the indicated concentrations of either M110[M1-F38] (open circles) or M110[M1-K35] (closed circles) and the phosphatase reactions were initiated by addition of ^32P-labelled glycogen phosphorylase. The results are expressed as a percentage of the activity determined in control incubations where the M110 peptides were omitted. Similar results were obtained in three separate experiments. (B) The experiment was carried out as in (A), except that the peptide GM[G63-N75] (“wild type”, WT) and variants in which either Val 66 (V66A) (closed triangles) or Phe 68 (F68A) (closed circles) were changed to Ala, were used instead of the M110 peptides. Similar results were obtained in three separate experiments.
(§1) The myosin-associated form of PP1 (PP1M) was from chicken gizzard and the glycogen-associated form of PP1 (PP1G) from rabbit skeletal muscle. The β isoform of PP1c was released from PP1G by incubation for 2 hours in 2M LiBr, then purified by gel-filtration on a 30×1 cm column of Superose 12 (Pharmacia, Milton Keynes, U.K.) in the presence of 0.5M LiBr. Glycogen protein particles from rat liver were used as the source of hepatic PP1G Digoxygenin-labelled PP1c (γ1-isoform, hereafter termed PP1) was prepared as in [9]. GL was expressed in E. coli as a glutathione-S-transferase (GST) fusion protein [7], termed GST-GL. The catalytic subunit of PP2A from bovine heart (PP2AC) was provided by Dr R. MacKintosh in this Unit. The phosphorylatable myosin light chain (MLC20) and heavy meromyosin from chicken gizzard were a gift from Dr M. Ikebe (Case Western Reserve University, Cleveland, USA). Thrombin and benzamidine-Agarose were purchased from Sigma (Poole, UK).
(§2) ^32P-labelled rabbit skeletal muscle phosphorylase a (containing 1.0 mol phosphate per mol subunit) was prepared by phosphorylation with phosphorylase kinase, ^32P-labelled rabbit skeletal muscle glycogen synthase (containing 1.5 mol/mol subunit in the sites 3 region) was prepared by phosphorylation with glycogen synthase kinase-3 [24]). ^32P-labelled chicken gizzard MLC20 and ^32P-labelled chicken gizzard heavy meromyosin (containing 1.0 mol phosphate per mol subunit) were prepared by phosphorylation with smooth muscle myosin light chain kinase. The dephosphorylation of phosphorylase a (10 μM), glycogen synthase (1 μM) and MLC20 (1 μM) and heavy meromyosin (1 μM) was carried out as in [24]. One unit of activity (U) was that amount which released […] of phosphate in one minute.
(§3) PP1c was isolated from the rabbit skeletal muscle PP1-GM complex as described previously (Johnson et al, 1996). Glycogen particles isolated from rat liver (Schelling el al, 1988) served as the source of PP1-GL. The dephosphorylation of glycogen phosphorylase (10 μM) and the isolated MLC20 of smooth muscle myosin (1 μM) by PP1c was carried out as described previously (Cohen et al., 1988; Alessi et al., 1992).

PP1M [2] = biological target: T1, PP1M (Gallus gallus, UniProt P62207); assay: Phosphorylase phosphatase activity of PP1M; assay type: biochemical, chicken
T1 construct: from tissue; host or cells: chicken gizzard smooth muscle
Protocol: (§4) (A) The phosphorylase phosphatase (PhP) activity of PP1M (closed circles) and its MLC20 phosphatase (MLCP) activity (open circles) were assayed after preincubation for 15 minutes at 30° C. with the indicated concentrations of GM-(G63-T93). Activities are shown relative to control incubations in which GM-(G63-T93) was omitted. Similar results were obtained in three experiments.
(§5) (A) PP1M from chicken gizzard smooth muscle (Alessi et al., 1992) was diluted and incubated for 15 min at 30° C. with the peptide […] (SEQ ID No 4), corresponding to the sequence in p53BP2 that contains the RVXF motif. Reactions were started with either ^32P-labelled MLC20 or glycogen phosphorylase and the MLC20 phosphatase (open circles) and phosphorylase phosphatase (PhP, closed circles) activities were determined. The results are expressed as a percentage of the activity determined in control incubations where the p53BP2 peptide was omitted (100%). Similar results were obtained in three separate experiments. (B) same as (A) except that the peptide was incubated with diluted hepatic glycogen particles containing PP1-GL before measuring the PhP activity. Similar results were obtained in three separate experiments.
(§6) The myosin-associated form of PP1 (PP1M) was from chicken gizzard and the glycogen-associated form of PP1 (PP1G) from rabbit skeletal muscle. […]

PP1M [3] = biological target: T1, PP1M; assay: MLC20 phosphatase activity of PP1M; assay type: biochemical, chicken
Protocol: as §4, §5, §6

cultured cells = assay: Effect of p53BP2 peptide introduced into cultured cells (cell cycle, apoptosis; WAF1 ELISA, Nuclear Matrix Protein ELISA); assay type: cell-based; settings: Example 5, present tense, no data
From the text: The function of p53BP2 is ascertained by examining the in vivo effect of peptides based on the sequence of the p53BP2 binding site to PP1. This may be done by reference to the consensus peptide sequence described in the previous Examples and by reference to the crystal structure in Example 2. The peptide is introduced into cultured cells using penetratin available from Appligene. Other importins may also be used. Alternatively cDNA specifying p53BP2 proteins mutant in the p53BP2 binding site to PP1 are transfected in cultured cells. The effect of these agents on the cell cycle and apoptosis are assessed by a number of methods, for example WAF1 ELISA and Nuclear Matrix Protein ELISA assays (Amersham).

PP1c [4] = biological target: T2, PP1c (Oryctolagus cuniculus, UniProt P62143); assay: Phosphorylase phosphatase activity of PP1c; assay type: biochemical, rabbit
T2 construct: from tissue; host or cells: rabbit skeletal muscle (PP1G dissociated with LiBr)
Protocol: (§7) A,B; Effects of M110-(M1-E309) (closed circles), M110-(M1-F38) (open circles) and M110-(D39-E309) (open triangles) on the MLC20 phosphatase […] and phosphorylase phosphatase (B) activities of PP1c were measured after incubating PP1c for 15 minutes at 30° C. with each fragment. The results are presented as a percentage of those obtained in experiments where the M110 fragments were omitted.
(§8) C,D; The effect of M110-(M1-A150) (open circles) and M110-(L24-Y496) (closed circles) on the MLC20 phosphatase (C) and phosphorylase phosphatase (D) activities of PP1c were measured as in A,B.
(B) The phosphorylase phosphatase activity of PP1c was assayed as in A in the presence or absence of 1 μM GM-(G63-T93) and 1.0 nM M110-(M1-E309). The results are presented (SEM for three experiments) as a percentage of the PP1c activity measured in the absence of GM-(63-T93), M110-(M1-F38) or M110-(M1-E309).
as §1, §2, §3

PP1c [5] = biological target: T2, PP1c; assay: MLC20 (myosin P-light chain) phosphatase activity of PP1c; assay type: biochemical
Protocol: as §7, §8
(A) The MLC20 phosphatase activity of PP1c was assayed after incubation for 15 minutes at 30° C. in the presence or absence of 1 μM GM-(G63-T93) and either 0.1 μM M110-(M1-F38) or 0.1 nM M110-(M1-E309).
(1-38, open circles) or M110[M1-K35] (1-35, closed circles) were incubated with PP1c for 15 min at 30° C. and reactions started with the ^32P-labelled MLC20 substrate. The results are expressed as a % of the activity determined in control incubations where the M110 peptides were omitted (100%). Similar results were obtained in three separate experiments.
as §1, §2, §3
^32P-labelled myosin P-light chains containing 1.0 mol phosphate per mol subunit was prepared by phosphorylation with smooth muscle myosin light chain kinase. The dephosphorylation of myosin P-light chain (1 μM) was carried out as in [4] and one unit of activity (U) was that amount which catalysed the release of 1 μmole of phosphate in one min. When assaying PP1M in immunoprecipitates from the myofibrillar extracts, the tubes were shaken continuously and 3 nM okadaic acid was included to inhibit any PP2A present.

PP1GL [6] = assay: Glycogen synthase phosphatase activity of PP1GL; assay type: biochemical, rat
Protocol: as §1, with “UK). […]” for “UK).”

PP1M [7] = biological target: T1, PP1M; assay: Gel filtration of PP1M on Superose 12 with or without GM-(G63-T93); assay type: binding, chicken
Protocol: (B,C) PPIM was incubated for 15 minutes at 30° C. in the absence (B) and presence (C) of […] GM-(G63-T93), then passed through a 30×1 cm column of Superose 12 equilibrated at ambient temperature in 50 mM Tris/HCl pH 7.5, 0.2M NaCl, 0.1 mM EGTA, 0.1% (by vol) 2-mercaptoethanol, 0.03% (by mass) Brij 35 in the absence (B) or presence (C) of 1 μM GM-(G63-T93). Fractions (0.25 ml) were assayed for MLC20 phosphatase (MLCP) in B and for phosphorylase phosphatase (PhP) activity in C. The arrows denote the position of ferritin (450 kDa) and ovalbumin (43 kDa).

T2 sequence (P62143 whole entry): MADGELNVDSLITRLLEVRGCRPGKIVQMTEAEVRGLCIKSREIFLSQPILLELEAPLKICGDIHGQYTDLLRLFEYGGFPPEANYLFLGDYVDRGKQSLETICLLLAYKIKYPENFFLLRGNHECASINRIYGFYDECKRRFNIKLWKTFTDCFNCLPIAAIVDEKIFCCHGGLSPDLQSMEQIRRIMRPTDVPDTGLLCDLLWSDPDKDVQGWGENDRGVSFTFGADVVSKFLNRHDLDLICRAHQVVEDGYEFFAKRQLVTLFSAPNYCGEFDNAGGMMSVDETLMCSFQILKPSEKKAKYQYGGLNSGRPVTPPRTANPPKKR
T1 sequence (P62207 whole entry): as the sequence (P62143 whole entry) above

Row | Sequence | effect on the phosphorylase phosphatase activity of PP1GL (PP1GL [1]; hepatic glycogen particles containing PP1-GL) | effect on the phosphorylase phosphatase activity of PP1M (PP1M [2]) | effect on the MLC20 phosphatase activity of PP1M (PP1M [3]) | effect of the peptide in cultured cells (cultured cells) | displacement of GL from PP1c (PP1GL [1]) | increase in the phosphorylase phosphatase activity of PP1GL (PP1GL [1]; hepatic glycogen particles, 15 min 30° C.) | EC50 (PP1GL [1]; hepatic glycogen particles, 15 min 30° C., read-out: concentration required for 50% activation of the phosphorylase phosphatase activity of PP1GL) | prevention of suppression of the phosphorylase phosphatase activity of PP1c by a regulatory subunit or fragment (PP1c [4]) | maximal stimulation of the phosphorylase phosphatase activity of PP1c (PP1c [4]; SEM for three experiments) | prevention of stimulation of the MLC20 phosphatase activity of PP1c by M110 fragments (PP1c [5]) | effect on the glycogen synthase phosphatase activity of PP1GL (PP1GL [6]) | increase in the phosphorylase phosphatase activity of PP1M (PP1M [2]; 10 μM peptide) | suppression of the MLC20 phosphatase activity of PP1M (PP1M [3]; 10 μM peptide) | dissociation of PP1M in gel-filtration experiments (PP1M [7])
1 | GKRTNLRKTGSERIAHGMRVKFNPLALLLDSC [32 residue peptide from p53BP2] | increase in the rate of dephosphorylation of glycogen phosphorylase | increase in the rate of dephosphorylation of glycogen phosphorylase | decrease in the rate of dephosphorylation of the MLC20 subunit of smooth muscle myosin | modulate the interaction between PP1 and p53BP2 in vivo and affect cell regulation and apoptosis |  |  |  |  |  |  |  |  |  | 
2 | GRRVSFADNFGFNLVSVKEFDTWELPSVSTT [GM-(G63-T93), synthetic peptide, residues 63-93 of rabbit GM] |  |  |  |  | does not displace GL from PP1c | sixfold | 30 nM | prevented bacterially expressed GST-GL from suppressing the phosphorylase phosphatase activity of PP1c; also recorded: prevented M110-(M1-E309) from suppressing the phosphorylase phosphatase activity of PP1c | 37+1.4% | prevented M110-(M1-F38) or M110-(M1-E309) from stimulating the MLC20 phosphatase activity of PP1c | no effect | about 7 fold | 60-65% | displaced the M110 subunit from PP1M
